The results in this text go back to patent US20250032447A1, “USE OF UROLITHIN IN THE REMISSION PHASE OF A PRECEDING CANCER THERAPY” (SOCIETE DES PRODUITS NESTLE S.A., priority 2022, published 2025).

SMILES strings stand for the structures. “Also recorded” adds a separate entry of the source.

Experiment [1] relates to MC38 colorectal cancer cells. The experiment in a line: MC38 tumor challenge in mice fed UroA enriched diet. The experiment is classed as in vivo, C57BL/6 mice. From the text:
Cell line and in vitro culture: An MC38 colorectal cancer cell line and a B16 cell line were used. The MC38 colorectal cancer cell line (Corbett el al., Can Res, 1975) is a murine colon adenocarcinoma cell line from a C57BL/6 mouse. The cells are adherent and have a fibroblast morphology. MC38 cells will form tumors and metastases post implantation into syngeneic C57BL/6 mice or immunocompromised mice. The B16 melanoma is a murine tumor cell line used for research as a model for human skin cancers. Both MC38 and B16 cancer cell lines are commercially available.
The MC38 colorectal cancer cell line was maintained in RPMI 1640 media (Thermofisher) supplemented with 10% FBS (Gibco), 50 μM beta-mercaptoethanol (Thermofisher), 100 U/ml penicillin/streptomycin (Thermofisher), 1 mM Sodium Pyruvte (Thermofisher).
B57BL/6 mice were purchased from ENVIGO and housed in the animal facility of the University of Lausanne. One week upon arrival mice were fed ad libitum with Urolithin A enriched diet. Urolithin A diet was prepared as follow: 300 mg of Urolithin A (Novalix) was dissolved in DMSO (Applichem) and mixed with 1 kg of “2016 Irradiated Global 16% Rodent diet ground” (ENVIGO) corresponding to a dose of 50 mg/kg/day. For control diet, hereafter named DMSO diet, DMSO (Applichem) was mixed with 1 kg of “2016 Irradiated Global 16% Rodent diet ground” (ENVIGO). The diets were aliquoted in small balls and let them dry under sterile conditions. Mice were fed ad libitum for 4 weeks with DMSO diet or Urolithin A diet before tumor engraftment.
For tumor engraftment, each mouse was injected subcutaneously with 5×10^5 MC38 cancer cells or 1×10^5 B16 cancer cells into the right flank.
For the MC38 and B16 experiments 5 mice received ad libitum DMSO diet, and 5 mice received ad libitum Urolithin A enriched diet for 4 weeks before tumor injection. Mice were sacrificed at humane endpoint as established by the Swiss federal regulation and approved by cantonal authorities. Examples of humane endpoint are: tumor size exceeding […], loss of weight (15% of the previous time point) and sign of distress. […] These mice were named survivor mice.
To test this hypothesis, mice were fed ad libitum with UroA diet (see above, Urolithin A diet) and control diet (DMSO, see above) for 4 weeks. Colorectal cancer cells MC38 were subcutaneously injected in the right flank of the mice (FIG. 1A). Tumor volumes were estimated by using the formula: tumor volume=(length×width×width)/2.

For experiment [2], the system named is MC38 colorectal cancer cells. Kind of experiment: MC38 tumor re-challenge of survivor mice. The experiment is classed as in vivo. The source says:
For re-challenge experiments, survivor mice were removed from the UroA diet and placed in conventional diet (diet provided by the animal facility of University of Lausanne) for one week. During this week one mouse developed tumor and was excluded from the experiment. The remaining 3 mice were subcutaneously injected with 5×10^5 MC38 cancer cells. At the same time, another 5 mice (named control cage) were subcutaneously injected with 5×10^5 MC38 cancer cells. This second tumor injection was done on the left flank of the mouse to discriminate between tumor arising from the first injection from tumor arising from the second, re-challenge, injection.
Then, it was tested whether UroA mediated tumor control was exerted through adaptive immune response. It was assumed as a working hypothesis that memory T cells with antitumoral activity would have been generated in the survivor hosts, which would promptly react against a second tumor graft. To test this hypothesis, survivor mice from the UroA group were injected after 7 weeks with the same cancer cell line (MC38) in the opposite flank (FIG. 2A). To exclude any possible contribution of UroA in tumor growth, the mice survivor mice and a control cage group were kept in conventional food without UroA for one week before tumor injection.

For experiment [3], the system named is B16 melanoma. Kind of experiment: B16 melanoma tumor challenge in mice fed UroA enriched diet. The experiment is classed as in vivo, B57BL/6 mice. The settings on record: 5 mice; Urolithin A enriched diet ad libitum 4 weeks before B16 injection. As to the method:
The B16 cell line were maintained in DMEM+GlutaMAX (Thermofisher) supplemented with 10% FBS (Gibco), and 100 U/ml penicillin/streptomycin (Thermofisher). B57BL/6 mice were purchased from ENVIGO and housed in the animal facility of the University of Lausanne. One week upon arrival mice were fed ad libitum with Urolithin A enriched diet. Urolithin A diet was prepared as follow: 300 mg of Urolithin A (Novalix) was dissolved in DMSO (Applichem) and mixed with 1 kg of “2016 Irradiated Global 16% Rodent diet ground” (ENVIGO) corresponding to a dose of 50 mg/kg/day. For control diet, hereafter named DMSO diet, DMSO (Applichem) was mixed with 1 kg of “2016 Irradiated Global 16% Rodent diet ground” (ENVIGO). The diets were aliquoted in small balls and let them dry under sterile conditions. Mice were fed ad libitum for 4 weeks with DMSO diet or Urolithin A diet before tumor engraftment. For tumor engraftment, each mouse was injected subcutaneously with 5×10^5 MC38 cancer cells or 1×10^5 B16 cancer cells into the right flank. For the MC38 and B16 experiments 5 mice received ad libitum DMSO diet, and 5 mice received ad libitum Urolithin A enriched diet for 4 weeks before tumor injection. Mice were sacrificed at humane endpoint as established by the Swiss federal regulation and approved by cantonal authorities. […]

The test system of another experiment is MC38 cells. Kind of experiment: MC38 tumor challenge in immunodeficient NSG mice. The experiment is classed as in vivo. As to conditions: for effect on tumor growth rate and size: NSG immunodeficient mice, vs DMSO control. From the text:
To validate that the Urolithin A supplementation enhances the adaptive immune response 5×10^5 MC38 cells were subcutaneously injected in the right flank of the immunodeficient mice NSG (NOD.Cg-Prkdc^sc^i^d II2rg^tm1Wil/SzJ) previously fed with Urolithin A enriched diet for 4 weeks. Tumor volumes were estimated by using the formula: tumor volume=(length×width×width)/2. 5 mice recede the DMSO diet and 5 mice received the Urolithin A enriched diet. Both the 5 mice receiving the DMSO diet and the 5 mice receiving the Urolithin A enriched diet developed tumors.

In experiment [4] the test system is B16 melanoma. The experiment in a line: B16 melanoma preventive effect, diet on/off. The experiment is classed as in vivo, B57BL/6 mice. The settings on record: day 17, 5×10^5 B16 cells s.c. From the text: To test whether Urolithin A feeding would have a preventive effect by boosting the immune system inventors performed the following experiment. A less immunogenic tumor model B16 melanoma was chosen for this experiment. 10 mice received ad libitum DMSO diet (see above), and 10 mice received ad libitum Urolithin A enriched diet (see above) for 4 weeks. Then 5 mice from DMSO diet were placed in conventional diet (provided by Animal facility), this group was called DMSO on/off. The remaining 5 mice were kept in DMSO diet and named DMSO group. 5 mice from Urolithin diet were placed in conventional diet (provided by Animal facility), this group was called UroA on/off. The remaining 5 mice were kept in […]. After one week, 5×10^5 B16 cells were subcutaneously injected in the right flank of B57BL/6 mice. Tumor engraftment, diet treatment and re-challenge experiments were as described initially in Example 1.

Experiment [5] is described as follows: Initial tests in mice fed diet supplemented with UroA. The experiment is classed as in vivo.

As to `O=c1oc2cc(O)ccc2c2ccc(O)cc12` [Urolithin A, 3,8-dihydroxyurolithin], the average tumor size in experiment [1] (Exp1, 5 mice, Urolithin A enriched diet ad libitum 4 weeks (50 mg/kg/day) before s.c. injection of 5×10^5 MC38 cells) is given as 50 mm^3; in the experiment on B16 melanoma [3] it was 70 mm^3; in the experiment on B16 melanoma [4] (UroA group (kept on diet)) it was 200 mm^3; in the experiment with B16 melanoma [4] (UroA on/off group (4 weeks diet, then conventional diet one week before injection)), 200 mm^3. The “tumor engraftment and growth” value in experiment [1] (Exp1 and Exp2, UroA enriched diet ad libitum vs DMSO diet) is “significantly reduced”. In addition, in experiment [1] (Exp2, out of 3 mice on Urolithin A enriched diet), the “mice that developed tumors bigger than 100 mm^3” value is given as “one”. Also, in experiment [1] (MC38, mice fed Urolithin A diet), the “mice that did not develop any tumor” value is listed as 4 out of 5. In addition, the overall survival entry in experiment [1] (UroA diet compared to DMSO diet, MC38 model) was “improved overall survival”. Also, in experiment [2] (survivor mice re-injected with MC38 in opposite flank after 7 weeks, conventional food without UroA for one week before injection), the “average tumor size upon re-challenge” value is 100 mm^3. Further, the survival upon re-challenge entry in experiment [2] (survivor mice vs freshly challenged control cage group, listed as UroA) was “better tumor control capacity and survival; also recorded: improved overall survival”. Moreover, the “effect on tumor growth rate and size” value in the experiment with MC38 cells was “no change in tumors growth rate and volume”; in the experiment with MC38 cells (listed as UroA) it was “no effect on tumor size”. This compound also had a tumor size at last timepoint in the experiment with MC38 cells (day 18, NSG mice, Urolithin A enriched diet 4 weeks, 5×10^5 MC38 cells s.c.) of 1000 mm³. Further, the “overall quality of HSCs” value in experiment [5] is “increased”. Moreover, in experiment [5], the splenocytes count entry is given as “increased”.
